Key:
[1] = anticonvulsant use; cited from earlier work
[2] = antiepileptic; cited from earlier work
[3] = test system: Antivalproate; assay: Homogeneous enzyme immunoassay for valproate (absorbance difference); assay type: biochemical; conditions: difference in absorbance×2.667, 340 mn, 10 to 40 seconds
From the text: As previously indicated, the antibodies and enzyme reagents prepared in accordance with the subject invention find particular use in immunoassays for the determination of valproate. A description of the method for carrying out the immunoassay, which is a homogeneous enzyme immunoassay, may be found in U.S. Pat. No. 3,817,837. The method involves combining the enzyme conjugate, the unknown sample suspected of containing valproate, an antibody for valproate in an aqueous buffered medium at temperatures in the range of about 10° to 50°, more usually from about 20° to 40° C., and determining the enzyme activity as compared to the enzyme activity of an assay medium having a known amount of valproate.
In carrying out the assay, a Gilford 300 N microsample spectrophotometer is employed with a Thermocuvette with a flow cell. All readings are made at 340 mn. The following solutions are prepared as reagents for use in the assay.
Sufficient enzyme conjugate to give
a maximum rate of ΔOD equal to
Antivalproate optimized for assay
The protocol employed for carrying out an assay is as follows: A sample, 50 μl is drawn up into a diluter and dispensed with 250 μl of the assay buffer into a one ml Croan cup. A 50 μl aliquot of the diluted sample is drawn up and dispensed with a 250 μl portion of assay buffer into a second Croan cup. Into the second Croan cup is introduced 50 μl of the antibody reagent with 250 μl of the assay buffer, followed by the addition of 50 μl of the enzyme reagent and 250 μl of the assay buffer. Immediately after the enzyme addition, the entire sample is aspirated into the flow cell. After 10 seconds, a first reading is taken, followed by a second reading, after a 40 second interval from aspiration. The results are reported as the difference in absorbance×2.667.

[4] = humans, cited from earlier work

In the case of `CCCC(CCC)C(=O)[O-].[Na+]` [Valproate, sodium di-n-propylacetate], the toxicity [1] is given as “low toxicity”, the “minimum level in serum required for therapeutic efficacy” value [2] is given as at least 50 µg/mL and the ΔOD ([3]; valproate 25 μg/ml) is given as 630. The ΔOD ([3]; valproate 50 μg/ml) was 646, the ΔOD ([3]; valproate 75 μg/ml) was 666 and the ΔOD ([3]; valproate 100 μg/ml) was 682. It also gave a ΔOD ([3]; valproate 150 μg/ml) of 714.

For `CCCC(CCC)C(=O)O` [valproic acid, 2-propylpentanoic acid], the metabolism [4] is listed as “metabolized in humans via oxidation predominantly at the positions β and ω to the carboxylic acid” and the excretion ([4]; urine) is listed as “eventually excreted in urine as the free acids or via glucuronide formation”.

— patent publication US4409325A, “Valproate conjugation using dicarbonyls” (Syva Company, priority 1981, dated 1983)
